We go through three molecules from patent US20260355217A1, “HPK1 INHIBITOR, PREPARATION METHOD THEREFOR, AND USE THEREOF” (Beijing Earthwise Technology Co., Ltd., priority 2022, published 2026).

One experiment concerns the target HPK1 (Homo sapiens, UniProt Q92918). The experiment in a line: HPK1 HTRF Kinase Assay. Format: biochemical. The conditions noted are these: 1000 μM ATP, 50 nM HPK1, STK1 substrate, 120 minutes. How it is done: Assay Example 2 HPK1 HTRF Kinase Assay
The assay was performed in a 384-well plate (Greier, Cat #784075) with a total reaction system of 20 μL. 1×kinase buffer (5*enzyme buffer, 5 mM MgCl2, 0.1% BSA, 1 mM DTT), […] and 1000 µM ATP, and 10 μL of Detection Mix (0.25 nM STK antibody, 62.5 nM XL665) were included in the reaction mixture. The reaction was initiated by adding 50 nM HPK1. After 120 minutes of reaction, the assay was terminated by adding 10 μL of Detection Mix. After being incubated at room temperature for 60 minutes, the assay plate was read by EnVision multi-function microplate reader to read the FRET signal (the ratio of HTRF 665/615 was calculated from the readings at 665 nm and 615 nm).
The ratio of the signal at 665 nm to the signal at 615 nm was converted to the percentage of inhibition. Inhibition %=(maximum value−sample value)/(maximum value−minimum value)×100. The minimum value refers to the value measured in a well without enzyme but with DMSO and substrate, and the maximum value refers to the value measured in a well with DMSO, enzyme and substrate. IC50 values were calculated by XLFit (version 5.3.1.3) in Excel. Equation: Y=Bottom+(Top−Bottom)/(1+(IC50/X)^HillSlope).

Experiment [1] relates to human Pan T cells (IL-2 release). The experiment in a line: Human Pan T Cell IL-2 ELISA. Format: cell-based. How it is done: Assay Example 4 Human Pan T Cell IL-2 ELISA
A compound was dissolved in DMSO to 10 mM, and then diluted three-fold with DMSO to 9 dosages in a 96-well plate. Then, 10 μL of the diluted compound sample was transferred to a 96-well plate with 90 μL of cell culture medium, and the plate was shaken for 5 minutes. Then, 5 μL of the diluted compound sample was transferred to a 96-well plate with 120 μL of cell culture medium, and the plate was shaken for 5 minutes. According to the experimental design diagram, 50 μL of the diluted compound sample was transferred to a cell plate. Final concentrations of the compound in this assay were 10000.00, 5000, 2500, 1250, 625, 312.5, 156.25, 78.125 and 39.063 nM.
The assay was conducted in a 96-well plate. On the first day of the assay, Anti-CD3 was added to the 96-well plate and incubated in a 4 °C refrigerator overnight. On the second day of the assay, human Pan T cells were recovered, centrifuged and counted. The cell density was adjusted to 1*10^6 cells/ml. Then, 100 μL of cells were added to the 96-well plate washed with PBS and added with Anti-CD3; according to the experimental design diagram, 50 μL of diluted Anti-CD28 and 50 μL of the diluted compound were added to each well, centrifuged, and the cell plate was placed and incubated in an incubator for 48 hours; after 48 hours, the plate was centrifuged and the supernatant was collected for IL-2 ELISA.
The signal value of light absorption was converted into a multiple. Multiple=sample value/the average value of control wells. The average value of control wells refers to the value measured in wells with DMSO added. EC50 values were calculated by XLFit (version 5.3.1.3) in Excel. Equation: Y=Bottom+(Top−Bottom)/(1+(EC50/X)^HillSlope).

Experiment [2] has as its target T1, pSLP76 (Phospho-SLP-76 (Ser376)), Jurkat E6-1 cells (Homo sapiens, UniProt Q92918).
T1 construct: read-out phospho-SLP-76 (Ser376) HTRF
The experiment in a line: Phospho-SLP-76 (Ser376) HTRF Assay in Jurkat E6-1 cells. Format: cell-based. The conditions noted are these: compound 4 hours, then anti-CD3 20 minutes. Here is the method:
Assay Example 3 Phospho-SLP-76 (Ser376) HTRF Assay
A compound was dissolved in DMSO to 10 mM, and then diluted three-fold with DMSO to 10 dosages in a 96-well plate. Then, 3 μL of the diluted compound sample was transferred to a 96-well plate with 97 μL of cell culture medium, and the plate was shaken for 5 minutes. According to the experimental design diagram, 7.5 μL of the diluted compound sample was transferred to a cell plate. Final concentrations of the compound in this assay were 10000.00, 3333.33, 1111.11, 370.37, 123.46, 41.15, 13.72, 4.57, 1.52 and 0.51 nM.
In this assay, the density of Jurkat E6-1 cells was maintained between 3*10^5 to 3*10^6 cells/mL. The cell culture was replaced with fresh culture medium every 2 to 3 days (depending on the cell density). 30 μL of Jurkat E6-1 (300,000 cells) was added to a 96-well plate and incubated in a 37 °C incubator for 1 hour. Then, according to the experimental design diagram, compounds (6×, 7.5 μL) were added to treat the cells for 4 hours, respectively. After 4 hours, purified anti-human anti-CD3 antibodies (6×, 7.5 μL) were added to treat the cells for 20 minutes. After 20 minutes, 15 μL of cell lysis buffer (4×) was added, and the cells were lysed at 25 °C with shaking (250 rpm) for 1 hour. Then, according to the experimental design diagram, 16 μL of cell lysate was transferred to a 384-well plate using a pipette. After the transfer, 4 μL of antibody detection mixture was added. After being placed at room temperature overnight, the plate was read by EnVision multi-function microplate reader to read the FRET signal (the ratio of HTRF 665/615 was calculated from the readings at 665 nm and 615 nm).
The ratio of the signal at 665 nm to the signal at 615 nm was converted to the percentage of inhibition. Inhibition %=(maximum value−sample value)/(maximum value−minimum value)×100. The minimum value refers to the signal value of a well without anti-CD3 antibody stimulation during the treatment of cells, and the maximum value refers to the signal value of a well with anti-CD3 antibody stimulation but without the compound during the treatment of cells. IC50 values were calculated by XLFit (version 5.3.1.3) in excel. Equation: Y=Bottom+(Top−Bottom)/(1+(IC50/X)^HillSlope).

Where [3] appears, read: Homo sapiens, T-cell, 48 h, Anti-CD3/Anti-CD28, IL-2 ELISA.

T1 sequence (Q92918 whole entry): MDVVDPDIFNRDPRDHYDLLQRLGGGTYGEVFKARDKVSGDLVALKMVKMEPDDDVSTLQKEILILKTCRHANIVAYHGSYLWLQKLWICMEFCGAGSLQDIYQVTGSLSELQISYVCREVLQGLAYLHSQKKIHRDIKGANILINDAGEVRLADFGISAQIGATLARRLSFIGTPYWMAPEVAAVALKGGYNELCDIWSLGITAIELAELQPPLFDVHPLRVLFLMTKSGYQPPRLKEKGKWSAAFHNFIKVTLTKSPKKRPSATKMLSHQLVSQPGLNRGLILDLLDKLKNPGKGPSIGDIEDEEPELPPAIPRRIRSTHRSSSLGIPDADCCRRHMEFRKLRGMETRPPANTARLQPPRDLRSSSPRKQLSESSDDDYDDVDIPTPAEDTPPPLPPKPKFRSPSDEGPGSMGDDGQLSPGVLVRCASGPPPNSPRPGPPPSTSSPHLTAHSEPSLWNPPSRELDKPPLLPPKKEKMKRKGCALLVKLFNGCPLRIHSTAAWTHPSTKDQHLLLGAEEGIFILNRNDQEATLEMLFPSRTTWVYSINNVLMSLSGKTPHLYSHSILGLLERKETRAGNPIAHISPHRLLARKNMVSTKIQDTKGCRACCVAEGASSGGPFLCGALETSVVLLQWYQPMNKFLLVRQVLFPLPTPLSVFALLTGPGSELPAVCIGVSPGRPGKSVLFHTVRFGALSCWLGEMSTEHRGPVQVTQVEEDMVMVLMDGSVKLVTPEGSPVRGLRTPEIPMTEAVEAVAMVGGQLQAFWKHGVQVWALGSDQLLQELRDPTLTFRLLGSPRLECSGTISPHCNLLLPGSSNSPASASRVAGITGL
Sequence of HPK1 (Q92918 whole entry): as above

Regarding `COc1cccn2c(-c3cc4c(c5c3CCNC5=O)Nc3ccc(N5CCOCC5)cc3C4(C)C)cnc12` [Example 13], the IC50 at HPK1 amounted to 0.00932 µM; in experiment [2], 0.0244 µM. Moreover, the response in experiment [1] (setting [3]) was half-maximal at 0.00312 µM (EC50).
In experiment [1] (Anti-CD3/Anti-CD28, 48 hours, IL-2 ELISA), `COc1cccc2c(-c3nc4c(c5c3CCNC5=O)Nc3ccc(N5CCOCC5)cc3C4(C)C)cnn12` [Example 15] returned an EC50 of 0.00395 µM. Besides, half-maximal inhibition in experiment [2] (IC50) was put at 0.0722 µM.
For the molecule `CC1(C)c2cc(N3CCOCC3)ccc2Nc2c1cc(-c1cncc(N3CCOCC3)c1)c1c2C(=O)NC1` [Example 85], it took 0.0362 µM to reach half-maximal inhibition against HPK1 (IC50). The molecule further displayed an EC50 in experiment [1] (setting [3]) of 0.0694 µM.
